We go through 29 molecules from US9174964B2, “AMPK-activating piperidinyloxy-substituted 2,3-dihydro-1H-indene-1-amine compounds and pharmaceutical compositions including the same” (Rigel Pharmaceuticals, Inc., priority 2007, dated 2015).

Structures can show the parent of a compound that is named as a salt.

One test has as its target AMPK. The experiment in a line: AMPK activation, enzyme-linked immunosorbent assay. Type of test: biochemical. The following applies: Table 2, AMPK activation, ELISA. The method, then:
Compounds 1-50 of Table 1 were assayed for their ability to activate AMPK using an enzyme-linked immunosorbent assay.
Compounds 51-60 of Table 1 were assayed for their ability to activate AMPK using an enzyme-linked immunosorbent assay.
Compounds 61-131 of Table 1 were assayed for their ability to activate AMPK using an enzyme-linked immunosorbent assay.
Compounds 137-141 and 143-155 of Table 1 were assayed for their ability to activate AMPK using an enzyme-linked immunosorbent assay.
Compounds 156-160 of Table 1 were assayed for their ability to activate AMPK using an enzyme-linked immunosorbent assay.
For orientation: ELISA stands for enzyme-linked immunosorbent assay.
Consider `O=C(N[C@@H]1CCN(Cc2ccncc2)C1)c1ccc(OC2CCN(c3ccc(C(F)(F)F)cc3)CC2)cn1` [Compound 25, (R)-N-(1-(pyridin-4-ylmethyl)pyrrolidin-3-yl)-5-(1-(4-(trifluoromethyl)phenyl)piperidin-4-yloxy)picolinamide], for which the EC50 (commonly the concentration at which the effect is half-maximal) lay in the range of 100 to 500 nM.
In turn, `CC(C)(C)OC(=O)N1CC[C@H](NC(=O)c2ccc(OC3CCN(c4ccc(C(F)(F)F)cc4)CC3)cn2)C1` [Compound 26, (S)-tert-butyl 3-(5-(1-(4-(trifluoromethyl)phenyl)piperidin-4-yloxy)picolinamido) pyrrolidine-1-carboxylate] registered an EC50 of 100 to 500 nM.
In turn, `CC(C)(C)OC(=O)N1CC[C@@H](NC(=O)c2ccc(OC3CCN(c4ccc(C(F)(F)F)cc4)CC3)cn2)C1` [Compound 23, (R)-tert-butyl 3-(5-(1-(4-(trifluoromethyl)phenyl)piperidin-4-yloxy)picolinamido) pyrrolidine-1-carboxylate] had an EC50 of 100 to 500 nM.
In turn, `O=C(NC1CCN(Cc2ccncc2)CC1)c1cncc(OC2CCN(c3ccc(C(F)(F)F)cc3)CC2)c1` [Compound 14, N-(1-(pyridin-4-ylmethyl)piperidin-4-yl)-5-(1-(4-(trifluoromethyl)phenyl)piperidin-4-yloxy)nicotinamide] returned an EC50 of under 100 nM.
Take `CN(C)c1ccc(CN2CCC(NC(=O)c3ccc(OC4CCN(c5ccc(C(F)(F)F)cc5)CC4)cn3)CC2)cc1` [Compound 39, N-(1-(4-(dimethylamino)benzyl)piperidin-4-yl)-5-(1-(4-(trifluoromethyl)phenyl)piperidin-4-yloxy)picolinamide]: the EC50 fell in the range of 100 to 500 nM.
Still for that read-out and setting: with `N#Cc1ccc(CN2CCC(NC(=O)c3ccc(OC4CCN(c5ccc(C(F)(F)F)cc5)CC4)cn3)CC2)cc1` [Compound 4, N-(1-(4-cyanobenzyl)piperidin-4-yl)-5-(1-(4-(trifluoromethyl)phenyl)piperidin-4-yloxy)picolinamide] the figure was under 100 nM; with `O=C(N[C@H]1CCN(Cc2ccc(F)cc2)C1)c1ccc(OC2CCN(c3ccc(C(F)(F)F)cc3)CC2)cn1` [Compound 32, (S)-N-(1-(4-fluorobenzyl)pyrrolidin-3-yl)-5-(1-(4-(trifluoromethyl)phenyl)piperidin-4-yloxy)picolinamide], 100 to 500 nM; with `O=C(N[C@H]1CCN(Cc2ccncc2)C1)c1ccc(OC2CCN(c3ccc(C(F)(F)F)cc3)CC2)cn1` [Compound 30, (S)-N-(1-(pyridin-4-ylmethyl)pyrrolidin-3-yl)-5-(1-(4-(trifluoromethyl)phenyl)piperidin-4-yloxy)picolinamide], under 100 nM.
The same measure, in the same setting: with `O=C(NC1CCN(Cc2ccncc2)CC1)c1cccc(OC2CCN(c3ccc(C(F)(F)F)cc3)CC2)n1` [Compound 43, N-(1-(pyridin-4-ylmethyl)piperidin-4-yl)-6-(1-(4-(trifluoromethyl)phenyl)piperidin-4-yloxy)picolinamide] the figure was 1000 to 5000 nM; with `O=C(NC1CCN(Cc2ccc(N3CCOCC3)cc2)CC1)c1ccc(OC2CCN(c3ccc(C(F)(F)F)cc3)CC2)cn1` [Compound 40, N-(1-(4-morpholinobenzyl)piperidin-4-yl)-5-(1-(4-(trifluoromethyl)phenyl)piperidin-4-yloxy)picolinamide], under 100 nM; with `O=C(NC1CCNCC1)c1ccnc(OC2CCN(c3ccc(C(F)(F)F)cc3)CC2)c1` [Compound 19, N-(piperidin-4-yl)-2-(1-(4-(trifluoromethyl)phenyl)piperidin-4-yloxy)isonicotinamide], 1000 to 5000 nM.
`O=C(N[C@@H]1CCNC1)c1ccc(OC2CCN(c3ccc(C(F)(F)F)cc3)CC2)cn1` [Compound 24, (R)-N-(pyrrolidin-3-yl)-5-(1-(4-(trifluoromethyl)phenyl)piperidin-4-yloxy)picolinamide] came in with an EC50 of 5000 to 10000 nM.

The test is the same for the next values; noted with them: Table 3, AMPK activation, ELISA.
`N#Cc1ccc(CN2CCC(Oc3ccc(S(=O)(=O)NC4CCN(Cc5ccncc5)CC4)cn3)CC2)cc1` [Compound 53, 6-(1-(4-cyanobenzyl)piperidin-4-yloxy)-N-(1-(pyridin-4-ylmethyl)piperidin-4-yl)pyridine-3-sulfonamide] showed an EC50 of 100 to 500 nM.
Same read-out and setting: to `O=S(=O)(NC1CCN(Cc2cccc(C(F)(F)F)c2)CC1)c1ccc(OC2CCN(c3ccc(C(F)(F)F)cc3)CC2)nc1` [Compound 59, N-(1-(3-(trifluoromethyl)benzyl)piperidin-4-yl)-6-(1-(4-(trifluoromethyl)phenyl)piperidin-4-yloxy)pyridine-3-sulfonamide] belongs 100 to 500 nM.

Staying with this test, now noted: Table 4, AMPK activation, ELISA.
Take `CN(C(=O)c1cc2cc(OC3CCN(c4ccc(C(F)(F)F)cc4)CC3)ccc2o1)C1CCN(C(=O)OC(C)(C)C)CC1` [Compound 102, tert-butyl 4-(N-methyl-5-(1-(4-(trifluoromethyl)phenyl)piperidin-4-yloxy)benzofuran-2-carboxamido)piperidine-1-carboxylate]: the EC50 fell in the range of 1000 to 10000 nM.
On to `CN(C(=O)c1cc2cc(OC3CCN(c4ccc(C(F)(F)F)cc4)CC3)ccc2o1)C1CCN(Cc2cccc(C#N)c2)CC1` [Compound 110, N-(1-(3-cyanobenzyl)piperidin-4-yl)-N-methyl-5-(1-(4-(trifluoromethyl)phenyl)piperidin-4-yloxy)benzofuran-2-carboxamide], for which the EC50 is under 100 nM.
Molecule `Cc1c(C(=O)NC2CCN(Cc3cccnc3)CC2)oc2cc(OC3CCN(c4ccc(C(F)(F)F)cc4)CC3)ccc12` [Compound 69, 3-methyl-N-(1-(pyridin-3-ylmethyl)piperidin-4-yl)-6-(1-(4-(trifluoromethyl)phenyl)piperidin-4-yloxy)benzofuran-2-carboxamide] registered an EC50 of under 100 nM.
Consider `CN(C(=O)c1cc2cc(OC3CCN(c4ccc(C(F)(F)F)cc4)CC3)ccc2o1)C1CCN(Cc2ccc(C#N)cc2)CC1` [Compound 107, N-(1-(4-cyanobenzyl)piperidin-4-yl)-N-methyl-5-(1-(4-(trifluoromethyl)phenyl)piperidin-4-yloxy)benzofuran-2-carboxamide], for which the EC50 is under 100 nM.
As for `O=C(NC1CCN(Cc2ccc(C(F)(F)F)cc2)CC1)c1cc2cc(OC3CCN(c4ccc(C(F)(F)F)cc4)CC3)ccc2o1` [Compound 100, N-(1-(4-(trifluoromethyl)benzyl)piperidin-4-yl)-5-(1-(4-(trifluoromethyl)phenyl)piperidin-4-yloxy)benzofuran-2-carboxamide], the EC50 is under 100 nM.
For `NC(=O)c1ccc(CN2CCC(Oc3ccc4oc(C(=O)NC5CCN(Cc6ccccc6)CC5)cc4c3)CC2)cc1` [Compound 116, N-(1-benzylpiperidin-4-yl)-5-(1-(4-carbamoylbenzyl)piperidin-4-yloxy)benzofuran-2-carboxamide], the EC50 was in the range of 100 to 500 nM.
`O=C(NC1CCN(S(=O)(=O)c2cccnc2)CC1)c1cc2ccc(OC3CCN(c4ccc(C(F)(F)F)cc4)CC3)cc2o1` [Compound 106, N-(1-(pyridin-3-ylsulfonyl)piperidin-4-yl)-6-(1-(4-(trifluoromethyl)phenyl)piperidin-4-yloxy)benzofuran-2-carboxamide] yielded an EC50 of 100 to 500 nM.
As to `CN(C(=O)c1cc2cc(OC3CCN(c4ccc(C(F)(F)F)cc4)CC3)ccc2o1)C1CCNCC1` [Compound 103, N-methyl-N-(piperidin-4-yl)-5-(1-(4-(trifluoromethyl)phenyl)piperidin-4-yloxy)benzofuran-2-carboxamide], the EC50 was 1000 to 10000 nM.
The molecule `CC(C)(C)OC(=O)N1CC[C@H](NC(=O)c2cc3cc(OC4CCN(Cc5ccc(Cl)cc5)CC4)ccc3o2)C1` [Compound 127, (S)-tert-butyl 3-(5-(1-(4-chlorobenzyl)piperidin-4-yloxy)benzofuran-2-carboxamido)pyrrolidine-1-carboxylate] had an EC50 of 1000 to 10000 nM.
The molecule `O=C(NC1CCN(Cc2ccc(F)cc2)CC1)c1cc2ccc(OC3CCN(c4ccc(C(F)(F)F)cc4)CC3)cc2o1` [Compound 91, N-(1-(4-fluorobenzyl)piperidin-4-yl)-6-(1-(4-(trifluoromethyl)phenyl)piperidin-4-yloxy)benzofuran-2-carboxamide] registered an EC50 of over 50000 nM.

The same test, now with this note: Table 4, AMPK activation, ELISA; formate salt.
In the case of `O=C(NC1CCN(Cc2ccncc2)CC1)c1cc2cc(OC3CCN(c4ccc(C(F)(F)F)cc4)CC3)ccc2o1` [Compound 105, N-(1-(pyridin-4-ylmethyl)piperidin-4-yl)-5-(1-(4-(trifluoromethyl)phenyl)piperidin-4-yloxy)benzofuran-2-carboxamide, formate salt], the EC50 was under 100 nM.

Still in this test, the particulars now being: Table 5, AMPK activation, ELISA.
Regarding `O=C(NC1CCNCC1)c1sc2cc(OC3CCN(c4ccc(C(F)(F)F)cc4)CC3)ccc2c1Cl` [Compound 148, 3-chloro-N-(piperidin-4-yl)-6-(1-(4-(trifluoromethyl)phenyl)piperidin-4-yloxy)benzo[b]thiophene-2-carboxamide], the EC50 was over 50000 nM.
As for `O=C(NC1CCNCC1)c1cc2ccc(OC3CCN(c4ccc(C(F)(F)F)cc4)CC3)cc2s1` [Compound 141, N-(piperidin-4-yl)-6-(1-(4-(trifluoromethyl)phenyl)piperidin-4-yloxy)benzo[b]thiophene-2-carboxamide], the EC50 lay within 100 to 500 nM.
Molecule `N#Cc1ccc(CN2CCC(NC(=O)c3cc4ccc(OC5CCN(c6ccc(C(F)(F)F)cc6)CC5)cc4s3)CC2)cc1` [Compound 144, N-(1-(4-cyanobenzyl)piperidin-4-yl)-6-(1-(4-(trifluoromethyl)phenyl)piperidin-4-yloxy)benzo[b]thiophene-2-carboxamide] displayed an EC50 of under 100 nM.

Staying with this test, now noted: Table 6, AMPK activation, ELISA.
Regarding `FC(F)(F)c1ccc(N2CCC(Oc3ccc4c(c3)CCC4NC3CCN(Cc4ccncc4)CC3)CC2)cc1` (centres unmarked) [Compound 158, 1-(pyridin-4-ylmethyl)-N-(5-(1-(4-(trifluoromethyl)phenyl)piperidin-4-yloxy)-2,3-dihydro-1H-inden-1-yl)piperidin-4-amine], the EC50 was 500 to 1000 nM.
